By IC50 is commonly meant the point on the concentration scale where inhibition reaches its midpoint. In general, melting point refers to the temperature of the solid-liquid transition.

The subject of data set [1] is C-32 (human amelanotic melanoma) cells. Briefly: WST-1 cell viability assay, C-32. It is filed as cell-based. To be noted: WST-1, 72 h exposure, ± SD, n = 6. The protocol:
(§1) The synthesized compounds were tested using three cancer cell lines—human amelanotic melanoma (C-32), human breast adenocarcinoma (MDA-MB-231), and human lung adenocarcinoma (A549)—and, for comparison, normal human dermal fibroblasts (HFF-1). The WST-1 (water-soluble tetrazole salt) assay was used to evaluate the effect of the synthesized compounds on the viability of cultured cells.
(§2) Compounds were evaluated for their antiproliferative activity using three cultured cell lines: C-32 (human amelanotic melanoma, ATCC, Manassas, VA, USA), A549 (human lung adenocarcinoma, ATCC, Manassas, VA, USA), MDA-MB-231 (human breast adenocarcinoma derived from metastatic site: pleural effusion, ATCC, Manassas, VA, USA), together with HFF-1 (normal human dermal fibroblasts, ATCC, Manassas, VA, USA). The cultured cells were kept at 37 °C and 5% CO2.
(§3) Cells were seeded in 96-well plates at 5000/well in 100 μL of medium. After 24 h of incubation, the medium was replaced with a new one with the addition of the test substance. After 72 h, the following tests were performed: with crystal violet (determination of the number of adherent cells in the culture), the WST-1 test (determination of the relative number of living cells and their metabolic activity), and the LDH test (determination of the relative number of dead cells in cultures—cytotoxicity of the tested substance).
(§4) WST-1 test: The WST-1 test (Roche Diagnostics, Mannheim, Germany) allows one to determine the relative number of cells in cultures. Absorbance is directly proportional to the number of cells and their metabolic activity. The absorbance measurement is performed at λ = 450 nm (reference wave 600 nm).
(Tetrazolium dyes change colour on reduction, which living cells bring about.)

Data set [2] concerns MDA-MB-231 (human breast adenocarcinoma) cells. As to the kind of experiment: WST-1 cell viability assay, MDA-MB-231. It is filed as cell-based. Particulars: WST-1, 72 h exposure, ± SD, n = 6. As to the method: as §1, §2, §3, §4
The subject of data set [3] is A549 (human lung adenocarcinoma) cells. Briefly: WST-1 cell viability assay, A549. Format: cell-based. To be noted: WST-1, 72 h exposure, ± SD, n = 6. The protocol: as §1, §2, §3, §4
Data set [4] deals with HFF-1 (normal human dermal fibroblasts). As to the kind of experiment: WST-1 cell viability assay, normal HFF-1. It is filed as cell-based. Particulars: ± SD, n = 6. As to the method:
as §1, §2, §3, §4

For the next data set, the system named is S. aureus ATCC 29213. As to the kind of experiment: MTT assay of bacterial respiratory activity. Format: cell-based, Staphylococcus aureus. Particulars: S. aureus ATCC 29213. From the text:
The MTT assay can be used to assess cell growth by measuring respiration. Bacterial cell respiratory activity (which is ultimately reflected in their viability) of less than 70% after exposure to the MIC values for each test compound is considered as a positive result for this test. This low level of cellular oxidative metabolism indicates inhibition of cell growth by inhibition of respiration. The lowest multiples of the MIC values by which inhibition of S. aureus ATCC 29213 viability [%] greater than 70% was achieved are shown in Table 4. […] Therefore, the antibacterial activity of the discussed compounds cannot be explained solely on the basis of respiration inhibition, so it is very difficult to draw a conclusion regarding the actual mechanism of action, since 8-HQs are multi-target agents, i.e., they affect several different targets at once (as discussed in the section dedicated to anticancer activity), which subsequently leads to the death of the treated resistant microorganisms.
Compounds were prepared as previously stated and diluted in CaMH broth for S. aureus to achieve the desired final concentrations. S. aureus bacterial suspension in sterile distilled water at 0.5 McFarland was diluted 1:3. Inocula were added to each well by multi-inoculator. Diluted mycobacteria in broth free from inhibiting compounds were used as the growth control. All compounds were prepared in duplicate. Plates were incubated at 37 °C for 24 h for S. aureus. After the incubation period, 10% well volume of MTT (3-(4,5-dimethylthiazol-2-yl)-2,5-diphenyltetrazolium bromide) reagent (Sigma) was mixed into each well and incubated at 37 °C 1 h for S. aureus. Then, 100 µL of 17% sodium dodecyl sulphate in 40% dimethylformamide was added to each well. The plates were read at 570 nm. The absorbance readings from the cells grown in the presence of the tested compounds were compared with uninhibited cell growth to determine the relative percent inhibition. The percent inhibition was determined through MTT assay. The percent viability is calculated through the comparison of a measured value and that of the uninhibited control: % viability = OD570E/OD570P × 100, where OD570E is the reading from the compound-exposed cells, while OD570P is the reading from the uninhibited cells (positive control). Cytotoxic potential is determined by a percent viability of <70% [81, 82].

The molecule `C#CCNS(=O)(=O)c1ccc(OC)c2ncccc12` [6a, 8-Methoxy-N-(prop-2-yn-1-yl)quinoline-5-sulfonamide] came in with a melting point of 161 to 163 °C. Moreover, in data set [1] (Homo sapiens), the IC50 is over 100 µM. The IC50 in data set [2] (Homo sapiens, MDA-MB-231) was over 100 µM. Also, the IC50 in data set [3] (Homo sapiens, A549) is over 100 µM.
Molecule `C#CC(C)(C)NS(=O)(=O)c1ccc(OC)c2ncccc12` [6b, 8-Methoxy-N-(1,1-dimethyloprop-2-yn-1-yl)quinoline-5-sulfonamide] came in with a melting point of 217 to 219 °C. This molecule also had an IC50 in data set [1] (Homo sapiens) of 40.6 ± 4.9 µM. Further, the IC50 in data set [2] (Homo sapiens, MDA-MB-231) is over 100 µM. In data set [3] (Homo sapiens, A549), the IC50 is over 100 µM.
`C#CCN(C)S(=O)(=O)c1ccc(OC)c2ncccc12` [6c, 8-Methoxy-N-methyl-N-(prop-2-yn-1-yl)quinoline-5-sulfonamide] showed a melting point of 112 to 114 °C. Besides, in data set [1] (Homo sapiens), it took 70.1 ± 8.4 µM to reach half-maximal inhibition (IC50). In addition, in data set [2] (Homo sapiens, MDA-MB-231), the IC50 is over 100 µM. The same molecule came in with an IC50 in data set [3] (Homo sapiens, A549) of over 100 µM.
For `C#CCOc1ccc(NS(=O)(=O)c2ccc(OC)c3ncccc23)cc1` [6d, 8-Methoxy-N-[4-(prop-2-yn-1-yloxy)phenyl]quinoline-5-sulfonamide], the melting point was in the range of 217 to 219 °C. 86.4 ± 3.9 µM corresponded to half-maximal inhibition in data set [1] (Homo sapiens) (IC50). For the same molecule, in data set [2] (Homo sapiens, MDA-MB-231), the IC50 is over 100 µM. This molecule also gave an IC50 in data set [3] (Homo sapiens, A549) of over 100 µM.
In turn, `C#CCOc1cccc(NS(=O)(=O)c2ccc(OC)c3ncccc23)c1` [6e, 8-Methoxy-N-[3-(prop-2-yn-1-yloxy)phenyl]quinoline-5-sulfonamide] displayed a melting point of 190 to 192 °C. The same molecule registered an IC50 in data set [1] (Homo sapiens) of 32.2 ± 4.8 µM. Further, in data set [2] (Homo sapiens, MDA-MB-231), the IC50 was over 100 µM. The molecule also had an IC50 in data set [3] (Homo sapiens, A549) of over 100 µM.
As to `C#CCOc1ccccc1NS(=O)(=O)c1ccc(OC)c2ncccc12` [6f, 8-Methoxy-N-[2-(prop-2-yn-1-yloxy)phenyl]quinoline-5-sulfonamide], the melting point was 187 to 189 °C. The same molecule displayed an IC50 in data set [1] (Homo sapiens) of 27.7 ± 2.2 µM. In data set [2] (Homo sapiens, MDA-MB-231), this molecule had an IC50 of over 100 µM. The IC50 in data set [3] (Homo sapiens, A549) is over 100 µM.
With `C=CCn1cc(CNS(=O)(=O)c2ccc(OC)c3ncccc23)nn1` [7a, N-[(1-Allyl-1H-1,2,3-triazol-4-yl)methyl]-8-methoxyquinoline-5-sulfonamide], the melting point lay in the range of 159 to 161 °C. Further, the concentration for half-maximal inhibition (IC50) in data set [1] (Homo sapiens) is over 100 µM. In data set [2] (Homo sapiens, MDA-MB-231), this molecule returned an IC50 of over 100 µM. Further, in data set [3] (Homo sapiens, A549), the half-inhibitory concentration (IC50) was over 100 µM.
As for `COc1ccc(S(=O)(=O)NCc2cn(Cc3ccccc3)nn2)c2cccnc12` [7b, N-[(1-Benzyl-1H-1,2,3-triazol-4-yl)methyl]-8-methoxyquinoline-5-sulfonamide], the melting point fell in the range of 170 to 172 °C. Further, the IC50 in data set [1] (Homo sapiens) was over 100 µM. Moreover, in data set [2] (Homo sapiens, MDA-MB-231), the IC50 was over 100 µM. Further, the IC50 in data set [3] (Homo sapiens, A549) is over 100 µM.
Molecule `COc1ccc(S(=O)(=O)NCc2cn(Cc3ccc(F)cc3)nn2)c2cccnc12` [7c, N-{[1-(4-Fluorobenzyl)-1H-1,2,3-triazol-4-yl]methyl}-8-methoxyquinoline-5-sulfonamide] yielded a melting point of 194 to 196 °C. Further, the midpoint of inhibition in data set [1] (Homo sapiens), the IC50, lay at 89 ± 3.5 µM. The IC50 in data set [2] (Homo sapiens, MDA-MB-231) is over 100 µM. The same molecule returned an IC50 in data set [3] (Homo sapiens, A549) of over 100 µM.
For the molecule `COc1ccc(S(=O)(=O)NCc2cn(-c3ccc(Cl)cc3)nn2)c2cccnc12` [7d, N-{[1-(4-Chlorophenyl)-1H-1,2,3-triazol-4-yl]methyl}-8-methoxyquinoline-5-sulfonamide], the melting point lay within 224 to 226 °C. In data set [1] (Homo sapiens), this molecule yielded an IC50 of over 100 µM. In addition, the IC50 in data set [2] (Homo sapiens, MDA-MB-231) was over 100 µM. Also, the IC50 in data set [3] (Homo sapiens, A549) is over 100 µM.
For the molecule `COc1ccc(S(=O)(=O)NCc2cn(CSc3ccccc3)nn2)c2cccnc12` [7e, N-({1-[(Phenylthio)methyl]-1H-1,2,3-triazol-4-yl}methyl)-8-methoxyquinoline-5-sulfonamide], the melting point was in the range of 205 to 207 °C. In data set [1] (Homo sapiens), this molecule came in with an IC50 of over 100 µM. The molecule further came in with an IC50 in data set [2] (Homo sapiens, MDA-MB-231) of 72.2 ± 3.6 µM. This molecule also yielded an IC50 in data set [3] (Homo sapiens, A549) of over 100 µM.
Molecule `COc1ccc(S(=O)(=O)NC(C)(C)c2cn(Cc3ccccc3)nn2)c2cccnc12` [7f, N-[2-(1-Benzyl-1H-1,2,3-triazol-4-yl)propan-2-yl]-8-methoxyquinoline-5-sulfonamide] displayed a melting point of 153 to 155 °C. The molecule also gave an IC50 in data set [1] (Homo sapiens) of over 100 µM. The same molecule had an IC50 in data set [2] (Homo sapiens, MDA-MB-231) of over 100 µM. Also, the IC50 in data set [3] (Homo sapiens, A549) was over 100 µM.
The molecule `COc1ccc(S(=O)(=O)N(C)Cc2cn(Cc3ccccc3)nn2)c2cccnc12` [7g, N-Methyl-N-[(1-benzyl-1H-1,2,3-triazol-4-yl)methyl]-8-methoxyquinoline-5-sulfonamide] had a melting point of 214 to 216 °C. The same molecule returned an IC50 in data set [1] (Homo sapiens) of 42.6 ± 3.4 µM. Besides, the IC50 in data set [2] (Homo sapiens, MDA-MB-231) was over 100 µM. The molecule also came in with an IC50 in data set [3] (Homo sapiens, A549) of over 100 µM.
`COc1ccc(S(=O)(=O)Nc2ccc(OCc3cn(Cc4ccccc4)nn3)cc2)c2cccnc12` [7h, N-{4-[(1-Benzyl-1H-1,2,3-triazol-4-yl)methoxy]phenyl}-8-methoxyquinoline-5-sulfonamide] yielded a melting point of 139 to 141 °C. This molecule returned an IC50 in data set [1] (Homo sapiens) of over 100 µM. The molecule further returned an IC50 in data set [2] (Homo sapiens, MDA-MB-231) of over 100 µM. For the same molecule, the IC50 in data set [3] (Homo sapiens, A549) was over 100 µM.
Consider `N.N.[Cl][Pt][Cl]` [CPT, cisplatin, reference compound], for which the IC50 in data set [1] worked out at 10.6 ± 0.5 µM; in data set [2] it was 10.3 ± 0.7 µM; in data set [3], 17.3 ± 1.3 µM; in data set [4] (WST-1, 72 h exposure), 26 ± 2 µM.
On to `O=C(O)c1cn(C2CC2)c2cc(N3CCNCC3)c(F)cc2c1=O` [CPX, ciprofloxacin, reference compound], for which, in the data set on S. aureus ATCC 29213, the “Conc.: lowest multiple of MIC with at least 70% inhibition of respiratory activity” value was 32 × MIC.
Regarding `COc1cccc2c1C(=O)c1c(O)c3c(c(O)c1C2=O)C[C@@](O)(C(=O)CO)C[C@@H]3O[C@H]1C[C@H](N)[C@H](O)[C@H](C)O1` [DOX, doxorubicin, reference compound], the IC50 amounted to 0.3 ± 0.02 µM in data set [1] (Homo sapiens); 0.6 ± 0.1 µM in data set [2] (Homo sapiens, MDA-MB-231); 1 ± 0.1 µM in data set [3] (Homo sapiens, A549); 1.4 ± 0.1 µM in data set [4] (HFF-1, WST-1, 72 h exposure).

These data come from paper PMC11396667, “Design, Synthesis, and Anticancer and Antibacterial Activities of Quinoline-5-Sulfonamides” (Molecules, 2024).
